Legend:
[1] = vigorous mixing with water: miscibility / solubility; type: physicochemical; details: mixed vigorously
From the text: Over time, the non-polar compounds will aggregate together and fall out of aqueous suspension. […] Beverages manufactured with only polar and non-polar substances would behave and result in a composition having an immiscible and undesirable tactile quality; pomegranate seed oil mixed with water is likely to result in a fatty or oily layer on top of the water, or with CBD, the water surface peppered with crystalline flakes. In most cases, the non-polar components are likely to adhere to the sides of the container.
(§1) For broad-based consumer success, it is desirable that a functional beverage product consistent in flavor, quality, and mouthfeel be manufacturable using an easily replicated process, and be food-safe. Immiscible components can result in material floating on the surface of the beverage, wherein the immiscible materials can shelter can promote the growth of contaminating organisms or provide localized regions survivable from pasteurizing temperatures. Additionally, such immiscible components can become a choking hazard to the unaware consumer. Non-polar compounds mix well with other non-polar compounds.

[2] = dissolving of CBD within pomegranate seed oil; type: physicochemical; details: even at refrigeration temperatures
From the text: as §1

Question: For `C=C(C)[C@@H]1CCC(C)=C[C@H]1c1c(O)cc(CCCCC)cc1O` [CBD, cannabidiol], which “behaviour in water after vigorous mixing” value [1] is on record?
Answer: non-dissolving solid

Question: And the “dissolving within pomegranate seed oil” value [2]?
Answer: successful dissolving

Source: patent publication US11026888B1, “Functional beverage compositions and methods of using and making same” (Nutrition Therapeutics, Inc., priority 2019, dated 2021)
